From ChEMBL document CHEMBL4814028, “Design, synthesis, and antibacterial evaluation of PFK-158 derivatives as potent agents against drug-resistant bacteria” (Bioorg Med Chem Lett, 2021)
Values after ≈ are worked out from the molar mass of the structure shown.

Assays:
[1] = system: Staphylococcus epidermidis; experiment: Antibacterial activity against methicillin-sensitive Staphylococcus epidermidis ATCC 12228 by agar method; assay type: functional
Escherichia coli [2] = experiment: Antibacterial activity against ESBLs negative Escherichia coli ATCC 25922 by agar method; assay type: functional
Enterococcus faecalis [3] = experiment: Antibacterial activity against vancomycin-resistant Enterococcus faecalis ATCC 51299 by agar method; assay type: functional
Staphylococcus aureus [4] = experiment: Antibacterial activity against methicillin-resistant Staphylococcus aureus ATCC 33591 by agar method; assay type: functional
Staphylococcus aureus [5] = experiment: Antibacterial activity against methicillin-sensitive Staphylococcus aureus ATCC 29213 by agar method; assay type: functional
[6] = system: Staphylococcus epidermidis; experiment: Antibacterial activity against methicillin-resistant Staphylococcus epidermidis 16-5 by agar method; assay type: functional
Enterococcus faecalis [7] = experiment: Antibacterial activity against Vancomycin-sensitive Enterococcus faecalis ATCC 29212 by agar method; assay type: functional
Escherichia coli [8] = experiment: Antibacterial activity against NDM-1 positive Escherichia coli ATCC 2469 by agar method; assay type: functional
Escherichia coli [9] = experiment: Antibacterial activity against ESBLs positive Escherichia coli ATCC 35218 by agar method; assay type: functional
Acinetobacter baumannii = experiment: Antibacterial activity against carbapenem-resistant Acinetobacter baumannii 16-33 by agar method; assay type: functional
A549 = experiment: Cytotoxicity against human A549 cells; assay type: cell-based

| Structure (SMILES) | MIC [1] [µg/mL] | MIC (Escherichia coli [2]) [µg/mL] | MIC (Enterococcus faecalis [3]) [µg/mL] | MIC (Staphylococcus aureus [4]) [µg/mL] | MIC (Staphylococcus aureus [5]) [µg/mL] | MIC [6] [µg/mL] | MIC (Enterococcus faecalis [7]) [µg/mL] | MIC (Escherichia coli [8]) [µg/mL] | MIC (Escherichia coli [9]) [µg/mL] | MIC (Acinetobacter baumannii) [µg/mL] | IC50 (A549) [µM] |
| --- | --- | --- | --- | --- | --- | --- | --- | --- | --- | --- | --- |
| O=C(/C=C/c1ccc2ccccc2n1)c1ccncc1 | 32 (≈ 123 µM) | > 32 | 32 (≈ 123 µM) | 32 (≈ 123 µM) | 32 (≈ 123 µM) | 32 (≈ 123 µM) | 32 (≈ 123 µM) | > 32 | > 32 | > 32 |  |
| O=C(/C=C/c1cnc2ccccc2c1)c1ccncc1 | 8 (≈ 30.7 µM) | > 128 | 16 (≈ 61.5 µM) | 8 (≈ 30.7 µM) | 8 (≈ 30.7 µM) | 8 (≈ 30.7 µM) | 32 (≈ 123 µM) | > 128 | > 128 | 128 (≈ 492 µM) |  |
| O=C(/C=C/c1cnc2ccccc2c1)c1cccnc1 | 16 (≈ 61.5 µM) | > 128 | 32 (≈ 123 µM) | 32 (≈ 123 µM) | 16 (≈ 61.5 µM) | 32 (≈ 123 µM) | 32 (≈ 123 µM) | > 128 | > 128 | 128 (≈ 492 µM) |  |
| O=C(/C=C/c1ccc2ccccc2c1)c1cccnc1 | > 128 | > 128 | > 128 | > 128 | > 128 | > 128 | > 128 | > 128 | > 128 | > 128 |  |
| O=C(/C=C/c1cccnc1)c1ccc2ccccc2c1 | 4 (≈ 15.4 µM) | > 128 | > 128 | 8 (≈ 30.9 µM) | 8 (≈ 30.9 µM) | 16 (≈ 61.7 µM) | > 128 | > 128 | > 128 | > 128 |  |
| O=C(/C=C/c1ccncc1)c1ccc2ccccc2c1 | 4 (≈ 15.4 µM) | > 128 | > 128 | 4 (≈ 15.4 µM) | 8 (≈ 30.9 µM) | 8 (≈ 30.9 µM) | > 128 | > 128 | > 128 | > 128 |  |
| O=C(/C=C/c1ccc2ccc(C(F)(F)F)cc2n1)c1ccccn1 | 4 (≈ 12.2 µM) | > 128 | 128 (≈ 390 µM) | 2 (≈ 6.09 µM) | 1 (≈ 3.05 µM) | 4 (≈ 12.2 µM) | > 128 | > 128 | > 128 | 128 (≈ 390 µM) | 10.2 |
| O=C(/C=C/c1ccc2ccc(C(F)(F)F)cc2n1)c1cccnc1 | 1 (≈ 3.05 µM) | > 32 | 4 (≈ 12.2 µM) | 1 (≈ 3.05 µM) | 1 (≈ 3.05 µM) | 2 (≈ 6.09 µM) | 4 (≈ 12.2 µM) | > 32 | > 32 | > 32 | 9.8 |
| O=C(/C=C/c1ccc2ccccc2n1)c1ccc2c(c1)OCO2 | > 128 | > 128 | > 128 | > 128 | > 128 | > 128 | > 128 | > 128 | > 128 | > 128 |  |
| O=C(/C=C/c1ccc2ccc(C(F)(F)F)cc2n1)c1ccc(O)c(O)c1 | 16 (≈ 44.5 µM) | > 128 | > 128 | 32 (≈ 89.1 µM) | 32 (≈ 89.1 µM) | 16 (≈ 44.5 µM) | > 128 | > 128 | > 128 | > 128 |  |
| O=C(/C=C/c1ccc2c(C(F)(F)F)cccc2n1)c1ccncc1 | 2 (≈ 6.09 µM) | > 128 | > 128 | 1 (≈ 3.05 µM) | 1 (≈ 3.05 µM) | 4 (≈ 12.2 µM) | > 128 | > 128 | > 128 | 128 (≈ 390 µM) | 45.4 |
| O=C(/C=C/c1ccccn1)c1ccc2ccc(C(F)(F)F)cc2n1 | 2 (≈ 6.09 µM) | > 32 | > 32 | 2 (≈ 6.09 µM) | 4 (≈ 12.2 µM) | 4 (≈ 12.2 µM) | 32 (≈ 97.5 µM) | > 32 | > 32 | > 32 | 11.2 |
| O=C(/C=C/c1ccc2c(C(F)(F)F)cccc2n1)c1ccccn1 | 2 (≈ 6.09 µM) | > 128 | > 128 | 1 (≈ 3.05 µM) | 1 (≈ 3.05 µM) | 2 (≈ 6.09 µM) | > 128 | > 128 | > 128 | 128 (≈ 390 µM) | 43.1 |
| COCOc1ccc(C(=O)/C=C/c2ccc3ccccc3n2)cc1OCOC | 4 (≈ 10.5 µM) | > 128 | > 128 | 8 (≈ 21.1 µM) | 8 (≈ 21.1 µM) | 8 (≈ 21.1 µM) | > 128 | > 128 | > 128 | > 128 |  |
| O=C(/C=C/c1ccc2ncccc2c1)c1ccccn1 | 8 (≈ 30.7 µM) | > 128 | 32 (≈ 123 µM) | 8 (≈ 30.7 µM) | 8 (≈ 30.7 µM) | 8 (≈ 30.7 µM) | 32 (≈ 123 µM) | > 128 | > 128 | 128 (≈ 492 µM) |  |
| O=C(/C=C/c1ccc2ccc(C(F)(F)F)cc2n1)c1ccccc1 | > 128 | > 128 | > 128 | > 128 | > 128 | > 128 | > 128 | > 128 | > 128 | > 128 |  |

| Structure (SMILES) | MIC [1] [µg/mL] | MIC (Escherichia coli [2]) [µg/mL] | MIC (Enterococcus faecalis [3]) [µg/mL] | MIC (Staphylococcus aureus [4]) [µg/mL] | MIC (Staphylococcus aureus [5]) [µg/mL] | MIC [6] [µg/mL] | MIC (Enterococcus faecalis [7]) [µg/mL] | MIC (Escherichia coli [8]) [µg/mL] | MIC (Escherichia coli [9]) [µg/mL] | MIC (Acinetobacter baumannii) [µg/mL] | IC50 (A549) [µM] |
| --- | --- | --- | --- | --- | --- | --- | --- | --- | --- | --- | --- |
| O=C(/C=C/c1cccnc1)c1ccc2ccc(C(F)(F)F)cc2n1 | > 32 | > 32 | > 32 | 32 (≈ 97.5 µM) | > 32 | > 32 | > 32 | > 32 | > 32 | > 32 |  |
| O=C(/C=C/c1ccc2ccccc2c1)c1ccccn1 | > 128 | > 128 | > 128 | > 128 | > 128 | > 128 | > 128 | > 128 | > 128 | > 128 |  |
| C[n+]1ccc(C(=O)/C=C/c2ccc3ccccc3c2)cc1.[I-] | 128 | > 128 | > 128 | 64 | 128 | 128 | > 128 | > 128 | > 128 | > 128 |  |
| O=C(/C=C/c1ccc2ccccc2c1)c1ccncc1 | > 128 | > 128 | > 128 | > 128 | > 128 | > 128 | > 128 | > 128 | > 128 | > 128 |  |
| O=C(/C=C/c1ccc2ncccc2c1)c1cccnc1 | 8 (≈ 30.7 µM) | > 128 | 32 (≈ 123 µM) | 16 (≈ 61.5 µM) | 16 (≈ 61.5 µM) | 8 (≈ 30.7 µM) | 32 (≈ 123 µM) | > 128 | > 128 | 128 (≈ 492 µM) |  |
| O=C(/C=C/c1ccc2ccc(C(F)(F)F)cc2n1)c1ccc2c(c1)OCO2 | > 128 | > 128 | > 128 | > 128 | > 128 | > 128 | > 128 | > 128 | > 128 | > 128 |  |
| C[n+]1cccc(C(=O)/C=C/c2ccc3ccccc3c2)c1.[I-] | > 128 | > 128 | > 128 | > 128 | > 128 | > 128 | > 128 | > 128 | > 128 | > 128 |  |
| O=C(/C=C/c1ccncc1)c1ccc2ccc(C(F)(F)F)cc2n1 | > 32 | > 32 | > 32 | 16 (≈ 48.7 µM) | > 32 | > 32 | > 32 | > 32 | > 32 | > 32 |  |
| C[n+]1cccc(/C=C/C(=O)c2ccc3ccccc3c2)c1.[I-] | 64 | > 128 | > 128 | 128 | 128 | > 128 | > 128 | > 128 | > 128 | > 128 |  |
| O=C(/C=C/c1ccc2ncccc2c1)c1ccncc1 | 16 (≈ 61.5 µM) | > 128 | 32 (≈ 123 µM) | 8 (≈ 30.7 µM) | 8 (≈ 30.7 µM) | 16 (≈ 61.5 µM) | 32 (≈ 123 µM) | > 128 | > 128 | 128 (≈ 492 µM) |  |
| O=C(/C=C/c1cnc2ccccc2c1)c1ccccn1 | 8 (≈ 30.7 µM) | > 128 | 32 (≈ 123 µM) | 8 (≈ 30.7 µM) | 8 (≈ 30.7 µM) | 8 (≈ 30.7 µM) | 32 (≈ 123 µM) | > 128 | > 128 | 128 (≈ 492 µM) |  |
| O=C(/C=C/c1ccc2ccccc2n1)c1ccc(O)c(O)c1 | 16 (≈ 54.9 µM) | > 64 | > 64 | 32 (≈ 110 µM) | 32 (≈ 110 µM) | 32 (≈ 110 µM) | > 64 | > 64 | > 64 | > 64 |  |
| C[n+]1cccc(C(=O)/C=C/c2ccc3ccc(C(F)(F)F)cc3n2)c1.[I-] | 64 | > 128 | 128 | 32 | 64 | 64 | 128 | > 128 | > 128 | > 128 |  |
| COCOc1ccc(C(=O)/C=C/c2ccc3ccc(C(F)(F)F)cc3n2)cc1OCOC | > 64 | > 64 | > 64 | > 64 | > 64 | > 64 | > 64 | > 64 | > 64 | > 64 |  |
| C[C@H]1COc2c(N3CCN(C)CC3)c(F)cc3c(=O)c(C(=O)O)cn1c23.C[C@H]1COc2c(N3CCN(C)CC3)c(F)cc3c(=O)c(C(=O)O)cn1c23.O [LEVOFLOXACIN] | 0.12 |  | 0.5 | 0.12 | 0.12 | 8 | 1 | 16 |  | 2 |  |
